ChEMBL document CHEMBL4630903, “Data for DCP probe BI-2540” (2021)
Activity calls are given as the source filed them. No cut-off for these calls is given here.

Legend:
[1] = target: Cannabinoid receptor 1 (Homo sapiens) (UniProt P21554); experiment: CB1(HU)_AGON Eurofins SafetyScreen44 (BI); conditions: filed as agonist; Compound concentration 10.0 uM
[2] = target: L-type Ca2+ channel (dihydropyridine site), Cav1.2 alpha-1C (Rattus norvegicus, UniProt P22002); experiment: CA+/DHPSI/R Eurofins SafetyScreen44 (BI); design: mode of action inhibitor; conditions: rat brain, probe [3H](+)PN200-110, compound concentration 10 uM, read-out: % Ctrl
[3] = target: D(1A) dopamine receptor (Homo sapiens) (UniProt P21728); experiment: D1/H Eurofins SafetyScreen44 (BI); conditions: filed as antagonist, Compound concentration 10.0 uM
[4] = target: Delta-type opioid receptor (Homo sapiens) (UniProt P41143); experiment: DELTA2/H Eurofins SafetyScreen44 (BI); conditions: Compound concentration 10.0 uM
[5] = target: Mu-type opioid receptor (Homo sapiens) (UniProt P35372); experiment: MU/H Eurofins SafetyScreen44 (BI); conditions: Compound concentration 10.0 uM
[6] = target: Histamine H2 receptor (Homo sapiens) (UniProt P25021); experiment: H2/APT/HS Eurofins SafetyScreen44 (BI); conditions: filed as antagonist, Compound concentration 10.0 uM
[7] = target: 5-hydroxytryptamine receptor 1B (Homo sapiens) (UniProt P28222); experiment: 5HT1B(H) Eurofins SafetyScreen44 (BI); conditions: filed as antagonist, Compound concentration 10.0 uM
[8] = target: Glutamate receptor ionotropic, NMDA 2A (Rattus norvegicus) (UniProt Q00959); experiment: NMDA/R Eurofins SafetyScreen44 (BI); conditions: Compound concentration 10.0 uM
[9] = target: 5-hydroxytryptamine receptor 3A (Homo sapiens) (UniProt P46098); experiment: 5HT3/H Eurofins SafetyScreen44 (BI); conditions: Compound concentration 10.0 uM
[10] = target: Histamine H1 receptor (Homo sapiens) (UniProt P35367); experiment: H1/PYRIL/HS Eurofins SafetyScreen44 (BI); conditions: Compound concentration 10.0 uM
[11] = target: Muscarinic acetylcholine receptor M3 (Homo sapiens) (UniProt P20309); experiment: M3/H Eurofins SafetyScreen44 (BI); conditions: Compound concentration 10.0 uM
[12] = HIV 1 luciferase assay; assay type: cell-based, Human immunodeficiency virus 1; conditions: c8166
[13] = target: Tyrosine-protein kinase Lck (Homo sapiens) (UniProt P06239); experiment: LCK_CE Eurofins SafetyScreen44 (BI); conditions: Compound concentration 10.0 uM
[14] = target: Sodium-dependent serotonin transporter (Homo sapiens) (UniProt P31645); experiment: SLC6A4/H Eurofins SafetyScreen44 (BI); conditions: filed as antagonist, Compound concentration 10.0 uM
[15] = target: Potassium voltage-gated channel subfamily V member 1 (Rattus norvegicus) (UniProt P97557); experiment: K+/VOLT/RA Eurofins SafetyScreen44 (BI); conditions: Compound concentration 10.0 uM
[16] = target: Gamma-aminobutyric acid receptor subunit alpha-1 (Rattus norvegicus) (UniProt P62813); experiment: BZD/CENTR/R Eurofins SafetyScreen44 (BI); conditions: Compound concentration 10.0 uM
[17] = HIV viral replication assay (ELISA); assay type: cell-based; conditions: Human immunodeficiency virus 1, C8166
[18] = target: Sodium-dependent dopamine transporter (Homo sapiens) (UniProt Q01959); experiment: DATRANS/HUM Eurofins SafetyScreen44 (BI); conditions: Compound concentration 10.0 uM
[19] = target: Alpha-1A adrenergic receptor (Homo sapiens) (UniProt P35348); experiment: ALPHA1AH_ANTAG Eurofins SafetyScreen44 (BI); conditions: filed as antagonist, Compound concentration 10.0 uM
[20] = target: D(2) dopamine receptor (Homo sapiens) (UniProt P14416); experiment: D2SH_AGON Eurofins SafetyScreen44 (BI); conditions: filed as agonist, Compound concentration 10.0 uM
[21] = target: 3',5'-cyclic-AMP phosphodiesterase 4D (Homo sapiens) (UniProt Q08499); experiment: PDE4D2 Eurofins SafetyScreen44 (BI); conditions: Compound concentration 10.0 uM
[22] = target: cGMP-inhibited 3',5'-cyclic phosphodiesterase 3A (Homo sapiens) (UniProt Q14432); experiment: PDE3A Eurofins SafetyScreen44 (BI); conditions: Compound concentration 10.0 uM
hERG (KCNH2) = hERG (KCNH2) (Homo sapiens, UniProt Q12809); experiment: HERG_DOFETILIDE Eurofins SafetyScreen44 (BI); design: mode of action inhibitor; conditions: probe [3H] dofetilide, compound concentration 10 uM, read-out: % Ctrl
[23] = target: Adenosine receptor A2a (Homo sapiens) (UniProt P29274); experiment: A2A/H Eurofins SafetyScreen44 (BI); conditions: filed as antagonist, Compound concentration 10.0 uM
[24] = target: 5-hydroxytryptamine receptor 2B (Homo sapiens) (UniProt P41595); experiment: 5HT2B/H AG Eurofins SafetyScreen44 (BI); conditions: filed as agonist, Compound concentration 10.0 uM
[25] = target: Beta-1 adrenergic receptor (Homo sapiens) (UniProt P08588); experiment: BETA1/HUM Eurofins SafetyScreen44 (BI); conditions: Compound concentration 10.0 uM
[26] = target: Beta-2 adrenergic receptor (Homo sapiens) (UniProt P07550); experiment: BETA2/HUM Eurofins SafetyScreen44 (BI); conditions: filed as antagonist, Compound concentration 10.0 uM
[27] = target: Sodium-dependent noradrenaline transporter (Homo sapiens) (UniProt P23975); experiment: NEUP/H Eurofins SafetyScreen44 (BI); conditions: Compound concentration 10.0 uM
[28] = target: Angiotensin-converting enzyme (Homo sapiens) (UniProt P12821); experiment: ACE(HU_AMTCH400) Eurofins SafetyScreen44 (BI); conditions: Compound concentration 10.0 uM
[29] = HIV1 reverse transcriptase picogreen fluorescence assay (enzymatic); design: species or system Human immunodeficiency virus 1
[30] = target: Muscarinic acetylcholine receptor M1 (Homo sapiens) (UniProt P11229); experiment: M1/H Eurofins SafetyScreen44 (BI); conditions: Compound concentration 10.0 uM
[31] = target: Androgen receptor (Homo sapiens) (UniProt P10275); experiment: ANDROGEN/H Eurofins SafetyScreen44 (BI); conditions: Compound concentration 10.0 uM
MAO-A = MAO-A (Rattus norvegicus, UniProt P21396); experiment: MAO-A_ANTAG Eurofins SafetyScreen44 (BI); design: mode of action antagonist; scale not given: the % may be the effect or the level left; conditions: compound concentration 10 uM, read-out: % Ctrl
[32] = target: Prostaglandin G/H synthase 1 (Homo sapiens) (UniProt P23219); experiment: COX-1 Eurofins SafetyScreen44 (BI); conditions: Compound concentration 10.0 uM
[33] = target: Prostaglandin G/H synthase 2 (Homo sapiens) (UniProt P35354); experiment: COX-2 Eurofins SafetyScreen44 (BI); conditions: Compound concentration 10.0 uM
[34] = target: Endothelin-1 receptor (Homo sapiens) (UniProt P25101); experiment: ETA/H Eurofins SafetyScreen44 (BI); conditions: Compound concentration 10.0 uM
[35] = target: 5-hydroxytryptamine receptor 1A (Homo sapiens) (UniProt P08908); experiment: 5HT1A/H Eurofins SafetyScreen44 (BI); conditions: Compound concentration 10.0 uM
[36] = target: 5-hydroxytryptamine receptor 2A (Homo sapiens) (UniProt P28223); experiment: 5HT2AH_AGON Eurofins SafetyScreen44 (BI); conditions: filed as agonist, Compound concentration 10.0 uM
[37] = target: Alpha-2A adrenergic receptor (Homo sapiens) (UniProt P08913); experiment: ALPHA2A/HU Eurofins SafetyScreen44 (BI); conditions: Compound concentration 10.0 uM
[38] = target: Glucocorticoid receptor (Homo sapiens) (UniProt P04150); experiment: GCORTICOID/H Eurofins SafetyScreen44 (BI); conditions: Compound concentration 10.0 uM
[39] = target: Muscarinic acetylcholine receptor M2 (Homo sapiens) (UniProt P08172); experiment: M2/H Eurofins SafetyScreen44 (BI); conditions: filed as antagonist, Compound concentration 10.0 uM
[40] = target: Neuronal acetylcholine receptor; alpha4/beta2 (Homo sapiens) (UniProt P17787+P43681); experiment: N_NEURO_A4B2 Eurofins SafetyScreen44 (BI); assay type: protein-complex assay; conditions: filed as agonist, Compound concentration 10.0 uM
[41] = target: Vasopressin V1a receptor (Homo sapiens) (UniProt P37288); experiment: V1A/HUM Eurofins SafetyScreen44 (BI); conditions: Compound concentration 10.0 uM
[42] = target: Cholecystokinin receptor type A (Homo sapiens) (UniProt P32238); experiment: CCKA/H Eurofins SafetyScreen44 (BI); conditions: Compound concentration 10.0 uM
[43] = target: Cannabinoid receptor 2 (Homo sapiens) (UniProt P34972); experiment: CB2/PERIPH/H Eurofins SafetyScreen44 (BI); conditions: Compound concentration 10.0 uM
[44] = target: Kappa-type opioid receptor (Homo sapiens) (UniProt P41145); experiment: KAPPA(KOP)_HU Eurofins SafetyScreen44 (BI); conditions: Compound concentration 10.0 uM

Chain of 5-hydroxytryptamine receptor 2B (Homo sapiens) (P41595 whole entry): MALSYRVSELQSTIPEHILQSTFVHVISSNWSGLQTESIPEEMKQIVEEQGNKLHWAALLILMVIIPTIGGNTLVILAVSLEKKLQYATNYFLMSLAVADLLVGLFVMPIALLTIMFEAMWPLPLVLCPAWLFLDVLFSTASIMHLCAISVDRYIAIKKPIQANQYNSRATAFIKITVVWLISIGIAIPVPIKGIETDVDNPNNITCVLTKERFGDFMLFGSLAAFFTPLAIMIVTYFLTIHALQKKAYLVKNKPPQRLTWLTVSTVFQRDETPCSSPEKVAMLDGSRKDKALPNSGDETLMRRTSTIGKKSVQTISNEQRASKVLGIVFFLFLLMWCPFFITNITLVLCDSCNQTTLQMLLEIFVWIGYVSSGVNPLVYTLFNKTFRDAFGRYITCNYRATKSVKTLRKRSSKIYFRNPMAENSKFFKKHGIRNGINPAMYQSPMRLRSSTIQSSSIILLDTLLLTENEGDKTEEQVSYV
Chain of Sodium-dependent noradrenaline transporter (Homo sapiens) (P23975 whole entry): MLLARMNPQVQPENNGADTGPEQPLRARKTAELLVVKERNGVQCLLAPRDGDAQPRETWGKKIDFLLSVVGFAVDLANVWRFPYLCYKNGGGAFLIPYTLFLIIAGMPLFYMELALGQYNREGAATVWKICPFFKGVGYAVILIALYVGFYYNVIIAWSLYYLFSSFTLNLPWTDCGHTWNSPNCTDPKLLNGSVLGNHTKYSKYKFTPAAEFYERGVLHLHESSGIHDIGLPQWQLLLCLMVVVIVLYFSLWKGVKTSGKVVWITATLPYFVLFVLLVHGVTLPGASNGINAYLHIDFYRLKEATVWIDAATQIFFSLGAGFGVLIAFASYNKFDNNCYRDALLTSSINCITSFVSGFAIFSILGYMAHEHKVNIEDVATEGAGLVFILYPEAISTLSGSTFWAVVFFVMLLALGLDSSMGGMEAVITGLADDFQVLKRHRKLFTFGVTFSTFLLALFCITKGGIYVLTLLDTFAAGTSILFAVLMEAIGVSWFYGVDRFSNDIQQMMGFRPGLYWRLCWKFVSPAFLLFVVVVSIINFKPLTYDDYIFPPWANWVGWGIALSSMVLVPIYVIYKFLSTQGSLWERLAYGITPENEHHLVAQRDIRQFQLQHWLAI
Chain of Alpha-2A adrenergic receptor (Homo sapiens) (P08913 whole entry): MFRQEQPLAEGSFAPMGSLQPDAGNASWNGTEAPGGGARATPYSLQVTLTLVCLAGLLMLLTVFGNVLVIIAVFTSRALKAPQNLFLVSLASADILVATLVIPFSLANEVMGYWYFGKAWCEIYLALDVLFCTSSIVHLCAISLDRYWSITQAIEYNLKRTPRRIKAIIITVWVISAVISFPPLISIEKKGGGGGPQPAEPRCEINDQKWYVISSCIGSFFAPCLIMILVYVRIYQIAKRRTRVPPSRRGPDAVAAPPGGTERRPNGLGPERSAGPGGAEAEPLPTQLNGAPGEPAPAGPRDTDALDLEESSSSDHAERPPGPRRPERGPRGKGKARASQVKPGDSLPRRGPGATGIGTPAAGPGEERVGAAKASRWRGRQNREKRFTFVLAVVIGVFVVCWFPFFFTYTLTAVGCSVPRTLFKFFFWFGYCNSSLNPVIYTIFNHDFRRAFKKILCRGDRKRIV
Chain of 5-hydroxytryptamine receptor 2A (Homo sapiens) (P28223 whole entry): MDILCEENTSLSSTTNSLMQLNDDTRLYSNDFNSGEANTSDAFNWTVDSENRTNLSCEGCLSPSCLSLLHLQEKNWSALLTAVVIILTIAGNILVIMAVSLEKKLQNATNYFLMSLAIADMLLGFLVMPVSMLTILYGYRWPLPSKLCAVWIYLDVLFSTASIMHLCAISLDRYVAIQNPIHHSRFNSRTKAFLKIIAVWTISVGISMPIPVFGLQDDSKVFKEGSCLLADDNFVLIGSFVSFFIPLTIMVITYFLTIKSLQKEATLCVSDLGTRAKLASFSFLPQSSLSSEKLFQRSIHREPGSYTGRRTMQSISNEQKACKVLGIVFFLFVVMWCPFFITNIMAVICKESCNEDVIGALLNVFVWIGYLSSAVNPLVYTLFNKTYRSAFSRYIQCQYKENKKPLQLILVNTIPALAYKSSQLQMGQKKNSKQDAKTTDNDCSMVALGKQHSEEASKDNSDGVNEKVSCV
Chain of Muscarinic acetylcholine receptor M3 (Homo sapiens) (P20309 whole entry, looked up): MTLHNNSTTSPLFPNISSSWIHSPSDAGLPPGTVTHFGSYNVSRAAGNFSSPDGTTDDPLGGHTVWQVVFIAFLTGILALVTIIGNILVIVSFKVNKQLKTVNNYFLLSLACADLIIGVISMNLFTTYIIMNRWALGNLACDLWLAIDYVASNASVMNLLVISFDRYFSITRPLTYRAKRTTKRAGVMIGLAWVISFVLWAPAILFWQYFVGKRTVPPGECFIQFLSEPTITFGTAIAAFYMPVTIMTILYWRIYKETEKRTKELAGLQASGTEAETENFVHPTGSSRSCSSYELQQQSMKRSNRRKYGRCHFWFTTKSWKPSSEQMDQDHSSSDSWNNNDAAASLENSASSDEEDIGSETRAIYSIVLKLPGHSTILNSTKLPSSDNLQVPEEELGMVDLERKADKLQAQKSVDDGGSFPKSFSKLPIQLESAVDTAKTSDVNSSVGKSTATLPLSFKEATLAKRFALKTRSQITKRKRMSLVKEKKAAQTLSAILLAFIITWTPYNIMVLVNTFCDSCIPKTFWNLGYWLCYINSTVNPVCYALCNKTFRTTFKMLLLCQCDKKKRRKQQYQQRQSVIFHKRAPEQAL
Chain of Prostaglandin G/H synthase 1 (Homo sapiens) (P23219 whole entry): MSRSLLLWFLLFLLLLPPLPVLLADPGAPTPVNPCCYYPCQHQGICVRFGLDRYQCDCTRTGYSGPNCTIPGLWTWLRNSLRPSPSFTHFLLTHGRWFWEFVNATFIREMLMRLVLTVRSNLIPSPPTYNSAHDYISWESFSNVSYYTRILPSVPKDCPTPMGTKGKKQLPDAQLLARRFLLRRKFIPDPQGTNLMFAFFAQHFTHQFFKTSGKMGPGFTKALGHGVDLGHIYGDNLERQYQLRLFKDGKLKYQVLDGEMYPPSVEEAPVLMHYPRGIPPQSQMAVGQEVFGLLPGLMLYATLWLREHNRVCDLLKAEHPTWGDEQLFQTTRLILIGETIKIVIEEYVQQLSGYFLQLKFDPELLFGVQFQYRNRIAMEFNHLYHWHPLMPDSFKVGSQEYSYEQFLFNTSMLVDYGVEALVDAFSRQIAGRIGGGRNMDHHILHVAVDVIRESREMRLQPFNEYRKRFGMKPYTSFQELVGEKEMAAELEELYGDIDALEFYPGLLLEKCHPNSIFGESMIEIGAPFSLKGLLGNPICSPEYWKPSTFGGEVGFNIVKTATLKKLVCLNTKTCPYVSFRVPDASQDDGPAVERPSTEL
Chain of 5-hydroxytryptamine receptor 1B (Homo sapiens) (P28222 whole entry): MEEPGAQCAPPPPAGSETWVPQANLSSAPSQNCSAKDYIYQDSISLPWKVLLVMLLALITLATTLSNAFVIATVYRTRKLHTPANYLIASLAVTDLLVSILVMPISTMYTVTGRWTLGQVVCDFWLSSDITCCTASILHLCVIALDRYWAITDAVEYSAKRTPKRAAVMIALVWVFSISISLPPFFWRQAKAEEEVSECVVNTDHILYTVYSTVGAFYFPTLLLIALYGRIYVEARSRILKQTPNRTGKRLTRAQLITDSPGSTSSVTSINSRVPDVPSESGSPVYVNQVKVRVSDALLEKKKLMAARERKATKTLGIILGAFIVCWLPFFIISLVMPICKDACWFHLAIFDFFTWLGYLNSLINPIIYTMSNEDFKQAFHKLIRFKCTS
Chain of cGMP-inhibited 3',5'-cyclic phosphodiesterase 3A (Homo sapiens) (Q14432 whole entry): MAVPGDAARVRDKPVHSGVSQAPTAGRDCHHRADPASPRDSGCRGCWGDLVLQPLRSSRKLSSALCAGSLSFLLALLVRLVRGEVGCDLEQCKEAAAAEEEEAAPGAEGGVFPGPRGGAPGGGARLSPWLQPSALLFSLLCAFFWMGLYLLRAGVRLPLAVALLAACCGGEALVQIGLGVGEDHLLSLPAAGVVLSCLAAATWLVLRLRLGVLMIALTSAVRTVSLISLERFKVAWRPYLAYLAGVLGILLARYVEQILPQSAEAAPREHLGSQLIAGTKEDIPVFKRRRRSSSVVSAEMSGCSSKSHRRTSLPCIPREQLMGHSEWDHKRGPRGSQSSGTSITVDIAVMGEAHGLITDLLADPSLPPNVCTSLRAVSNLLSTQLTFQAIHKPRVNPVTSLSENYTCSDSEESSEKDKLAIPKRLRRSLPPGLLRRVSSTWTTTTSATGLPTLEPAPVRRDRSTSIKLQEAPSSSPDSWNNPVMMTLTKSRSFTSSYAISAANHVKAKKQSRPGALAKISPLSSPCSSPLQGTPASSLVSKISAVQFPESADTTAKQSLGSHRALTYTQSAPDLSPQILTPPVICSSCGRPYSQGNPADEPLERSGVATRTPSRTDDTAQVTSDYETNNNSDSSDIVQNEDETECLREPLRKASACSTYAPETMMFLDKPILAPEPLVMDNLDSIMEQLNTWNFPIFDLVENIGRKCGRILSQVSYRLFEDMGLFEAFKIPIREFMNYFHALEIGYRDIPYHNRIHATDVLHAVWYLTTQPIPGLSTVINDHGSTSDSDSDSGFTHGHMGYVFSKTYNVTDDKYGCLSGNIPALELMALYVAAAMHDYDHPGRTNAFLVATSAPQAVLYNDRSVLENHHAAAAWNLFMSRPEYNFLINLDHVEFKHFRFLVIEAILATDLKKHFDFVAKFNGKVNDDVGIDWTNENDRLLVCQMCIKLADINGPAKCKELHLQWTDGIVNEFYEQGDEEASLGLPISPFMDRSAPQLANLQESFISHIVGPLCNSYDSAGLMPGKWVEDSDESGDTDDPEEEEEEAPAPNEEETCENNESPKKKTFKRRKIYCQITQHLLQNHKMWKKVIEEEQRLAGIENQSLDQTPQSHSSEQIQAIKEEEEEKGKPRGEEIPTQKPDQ

What does the source list for Cc1c(NC(=O)COc2ccc(Cl)cc2C(=O)c2cc(F)cc(C(F)(F)F)c2)ccc(C(=O)O)c1F [BI 2540]?
residual activity [1]: 125%; activity at 10 µM [2]: 96% (not active); residual activity [3]: 100%; residual activity [4]: 78%; residual activity [5]: 99%; residual activity [6]: 111%; residual activity [7]: 90%; residual activity [8]: 87%; residual activity [9]: 100%; residual activity [10]: 96%; residual activity [11]: 101%; IC50 [12]: 2.6 nM (active); residual activity [13]: 88%; residual activity [14]: 110%; residual activity [15]: 103%; residual activity [16]: 127%; IC50 [17]: 0.76 nM (active); residual activity [18]: 92%; residual activity [19]: 97%; residual activity [20]: 96%; residual activity [21]: 93%; residual activity [22]: 103%; activity at 10 µM (hERG (KCNH2)): 94% (not active); residual activity [23]: 82%; residual activity [24]: 103%; residual activity [25]: 101%; residual activity [26]: 96%; residual activity [27]: 98%; residual activity [28]: 110%; IC50 [29]: 12 nM (active); residual activity [30]: 113%; residual activity [31]: 105%; activity at 10 µM (MAO-A): 104% (not active); residual activity [32]: 110%; residual activity [33]: 84%; residual activity [34]: 113%; residual activity [35]: 94%; residual activity [36]: 110%; residual activity [37]: 79%; residual activity [38]: 103%; residual activity [39]: 111%; residual activity [40]: 102%; residual activity [41]: 107%; residual activity [42]: 108%; residual activity [43]: 100%; residual activity [44]: 103%

For CC(C)(C#Cc1ccc(NC(=O)COc2ccccc2C(=O)c2ccccc2)c(Cl)c1)C(=O)O [BI 2439], which IC50 [29] is on record?
Its IC50 is 5050 nM (not active).
